Laboratory results taken from patent US9061030B2, “sGC stimulators” (IRONWOOD PHARMACEUTICALS, INC., priority 2010, dated 2015).

What was measured:
[1] = molecular target: T1, soluble guanylate cyclase (sGC) (Homo sapiens, UniProt Q02108+Q02153); test: sGC-HEK-cGMP assay; type: cell-based; conditions: HEK293 cells, 10 μM SNP, percentage of sGC activity obtained with positive control BAY 41-2272 (= 100%); for Emax at 10 µM: compound at 10 μM; for Emax at 30 µM: compound at 30 μM
T1 construct: endogenously expressing soluble guanylate cyclase (sGC); endogenous in cells; host or cells: HEK293
T1 sequence (Q02153 1-619): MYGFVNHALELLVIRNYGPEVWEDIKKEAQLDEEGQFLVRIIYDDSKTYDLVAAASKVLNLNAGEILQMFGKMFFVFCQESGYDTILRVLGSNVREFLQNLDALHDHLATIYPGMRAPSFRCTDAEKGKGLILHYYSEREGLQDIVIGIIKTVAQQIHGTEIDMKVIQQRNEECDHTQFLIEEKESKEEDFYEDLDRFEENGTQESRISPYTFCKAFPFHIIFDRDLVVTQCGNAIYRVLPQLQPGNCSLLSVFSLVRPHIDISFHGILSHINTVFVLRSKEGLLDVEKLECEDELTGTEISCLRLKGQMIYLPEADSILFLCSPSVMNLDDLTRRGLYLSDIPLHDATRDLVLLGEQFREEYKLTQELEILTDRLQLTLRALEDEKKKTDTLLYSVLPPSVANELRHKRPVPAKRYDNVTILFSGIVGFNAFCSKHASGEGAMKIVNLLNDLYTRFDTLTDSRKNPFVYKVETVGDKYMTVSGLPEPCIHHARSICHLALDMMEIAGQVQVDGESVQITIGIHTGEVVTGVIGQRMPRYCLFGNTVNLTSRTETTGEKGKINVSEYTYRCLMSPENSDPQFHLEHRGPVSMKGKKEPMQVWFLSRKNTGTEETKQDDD
T1 sequence (Q02108 1-690): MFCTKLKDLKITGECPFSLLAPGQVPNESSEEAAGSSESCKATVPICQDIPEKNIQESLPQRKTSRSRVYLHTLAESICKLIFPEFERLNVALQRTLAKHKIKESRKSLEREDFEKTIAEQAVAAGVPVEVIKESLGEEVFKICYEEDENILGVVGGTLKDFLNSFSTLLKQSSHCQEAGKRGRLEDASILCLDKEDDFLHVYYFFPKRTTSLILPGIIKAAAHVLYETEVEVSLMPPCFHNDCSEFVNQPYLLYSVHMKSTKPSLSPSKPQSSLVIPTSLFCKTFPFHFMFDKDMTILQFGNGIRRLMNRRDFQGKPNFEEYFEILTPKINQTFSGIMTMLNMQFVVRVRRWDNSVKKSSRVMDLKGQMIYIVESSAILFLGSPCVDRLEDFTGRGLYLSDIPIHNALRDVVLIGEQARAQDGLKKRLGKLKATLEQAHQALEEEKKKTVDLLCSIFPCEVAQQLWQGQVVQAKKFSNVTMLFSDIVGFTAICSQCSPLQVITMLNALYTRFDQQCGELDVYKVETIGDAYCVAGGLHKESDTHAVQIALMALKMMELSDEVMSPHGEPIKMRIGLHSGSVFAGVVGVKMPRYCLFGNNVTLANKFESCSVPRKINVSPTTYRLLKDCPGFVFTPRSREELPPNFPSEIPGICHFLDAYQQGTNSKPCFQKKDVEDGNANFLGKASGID
Protocol: Human embryonic kidney cells (HEK293), endogenously expressing soluble guanylate cyclase (sGC), were used to evaluate the activity of the test compounds. Compounds stimulating the sGC receptor should cause an increase in the intracellular concentration of cGMP. HEK 293 cells were seeded in Dulbecco's Modification of Eagle's Medium supplemented with fetal bovine serum (10% final) and L-glutamine (2 mM final) in a 200 μL volume at a density of 1×10^5 cells/well in a poly-D-lysine coated 96 well flat bottom plate and grown overnight at 37° C. Medium was aspirated and cells were washed with 1× Hank's Buffered Saline Salt Solution (200 μL). Cells were then incubated for 15 minutes at 37° C. with 0.5 mM 3-isobutyl-1-methylxanthine (200 μL). Test article was then added to the assay mixture (2 μL) and incubated in the presence of 10 μM Sodium Nitroprusside (SNP) at 37° C. for 10 minutes. After the 10 minute incubation, the assay mixture was aspirated and 0.1M HCl (200 μL) was added to the cells. The plate was incubated at 4° C. for 30 minutes in the 0.1M HCl to stop the reaction and lysed the cells. The plates were then centrifuged at 1,200 g for 5 minutes at room temperature. Supernatants were collected and transferred to a new flat bottom 96 well plate for analysis. Vehicle controls were carried out using DMSO (1%). A known sGC stimulator, BAY 41-2272, was used as the positive control.
Samples were diluted with an equal volume of 1 M Ammonium Acetate (pH 7) to neutralize samples for better chromatography. A 2×cGMP standard curve was prepared in 0.1 M HCl and then diluted with an equal volume of 1 M Ammonium Acetate, with the following final concentrations in nM: 1024, 512, 256, 128, 64, 32, 16, 8, 4, 2, 1.cGMP concentrations were determined from each sample using the LC/MS conditions (Table 2 below) and calculated standard curve. EC50 values were calculated from concentration-response curves generated with GraphPad Prism Software.
The biological activities of some of the compounds according to Formula IA or Formula IB determined with the sGC-HEK assay are summarized in Table 3 below.

[2] = molecular target: T2, Human soluble guanylate cyclase enzyme (hsGC) (Homo sapiens, UniProt Q02108+Q02153); test: Purified human sGC enzyme activity assay (with or without SNP); type: biochemical; conditions: 30 μM compound; for sGC Enzyme Activity Increase at 30 μM with SNP: 1 μM SNP, specific activity vs DMSO and SNP; for sGC Enzyme Activity Increase at 30 μM without SNP: specific activity vs DMSO control
T2 construct: purchased Enzo Inc. ALX-201-177
T2 sequence (Q02153 1-619): T1 sequence (Q02153 1-619)
T2 sequence (Q02108 1-690): T1 sequence (Q02108 1-690)
Protocol: Human soluble guanylate cyclase enzyme (hsGC) obtained from Enzo Inc. (P/N: ALX-201-177) was used to evaluate the activity of test compounds. The assay reactions contained 0.1 M Tris (pH 8.0), 0.5 mg/mL BSA (pH 8.0), 2 mM DTT, 2 mM MgCl2, 300 μM GTP, 1 mM 3-isobutyl-1-methylxanthine (IBMX) and 5 ng human soluble guanylate cyclase enzyme. Test compounds in DMSO were then added (2 μL, 10 or 30 μM final concentration) and incubated (200 μL, 96-well plate format) at 37° C. for 30 minutes. The controls were carried out using 2 μL DMSO. After the 30 minute incubation, the reaction was stopped with the addition of 200 μL of cold methanol. The plate was then centrifuged at 3,200 rpm for 10 minutes at room temperature. Supernatants (200 μL) were collected and transferred to a new 96 well plate for analysis.
An 8 point cGMP (Sigma-Aldrich P/N: G6129) standard curve was prepared in assay buffer ranging from 0.156-20 μM. Samples for the cGMP standard curve were then diluted with an equal volume of methanol resulting in final cGMP concentrations of 0.078-10 μM.
The cGMP standard curve was generated using GraphPad Prism Software.
Calculations: Specific Activity was determined by the amount of cGMP formed (nmoles) per mg of sGC per min. Enzyme activity “fold-change” was calculated by dividing the Specific Activity for a test compound by the Specific Activity of DMSO control.
The enzymatic activity fold-change of the purified human sGC enzyme determined in the presence of each of the test compounds individually at 10 or 30 μm without the addition of sodium nitroprusside (SNP), a nitric oxide donor, is presented in Table 5.
Enzyme assays were also performed as described above, but in the presence of 1 μM sodium nitroprusside (SNP). Enzymatic activity fold-changes are reported for selected test compounds in the presence of both SNP and the test compound. These were calculated by dividing the specific activity (activity increase) for the test compound dissolved in DMSO and SNP over the specific activity for the mixture of DMSO and SNP.

Emax at 10 µM [1] [%]	Emax at 30 µM [1] [%]	sGC Enzyme Activity Increase at 30 μM with SNP [2]	sGC Enzyme Activity Increase at 30 μM without SNP [2]	SMILES
0 to 5	0 to 5	B (B = 1 to <2 fold increase)	B (B = 1 to <2 fold increase)	Fc1ccccc1Cn1nc(-c2cscn2)nc1-c1cc(Br)ccn1 [Compound I-52, 4-(5-(4-bromopyridin-2-yl)-1-(2-fluorobenzyl)-1H-1,2,4-triazol-3-yl)thiazole]
20 to 40	40 to 60	D (D = 5 to <10 fold increase)	C (C = 2 to <5 fold increase)	Fc1ccccc1Cn1nc(-c2cc(Br)ccn2)nc1-c1cocn1 [Compound I-54, 4-(3-(4-bromopyridin-2-yl)-1-(2-fluorobenzyl)-1H-1,2,4-triazol-5-yl)oxazole]
0 to 5	5 to 10	C (C = 2 to <5 fold increase)	B (B = 1 to <2 fold increase)	Fc1ccccc1Cn1nc(-c2cscn2)nc1-c1cnccn1 [Compound I-55]
10 to 20	40 to 60	D (D = 5 to <10 fold increase)	B (B = 1 to <2 fold increase)	Fc1ccccc1Cn1nc(-c2cnccn2)nc1-c1cscn1 [Compound I-56]
0 to 5	0 to 5	C (C = 2 to <5 fold increase)	B (B = 1 to <2 fold increase)	Nc1nc(-c2nc(-c3nccs3)n(Cc3ccccc3F)n2)nc(N)c1N [Compound I-57, 2-(1-(2-fluorobenzyl)-5-(thiazol-2-yl)-1H-1,2,4-triazol-3-yl)pyrimidin-4,5,6-triamine]
40 to 60	60 to 80	D (D = 5 to <10 fold increase)	C (C = 2 to <5 fold increase)	Fc1ccccc1Cn1nc(-c2ccccn2)nc1-c1ccon1 [Compound I-58, 3-(1-(2-fluorobenzyl)-3-(pyridin-2-yl)-1H-1,2,4-triazol-5-yl)isoxazole]
0 to 5	0 to 5	A (A = no increase to <1 fold increase)	A (A = no increase to <1 fold increase)	Fc1ccccc1Cn1nc(-c2ncccn2)nc1-c1ccon1 [Compound I-59, 3-(1-(2-fluorobenzyl)-3-(pyrimidin-2-yl)-1H-1,2,4-triazol-5-yl)isoxazole]
10 to 20	20 to 40	D (D = 5 to <10 fold increase)	B (B = 1 to <2 fold increase)	COC(=O)Nc1c(N)nc(-c2nc(-c3nccs3)n(Cc3ccccc3F)n2)nc1N [Compound I-60, methyl 4,6-diamino-2-(1-(2-fluorobenzyl)-5-(thiazol-2-yl)-1H-1,2,4-triazol-3-yl)pyrimidin-5-ylcarbamate]
10 to 20	5 to 10	C (C = 2 to <5 fold increase)	A (A = no increase to <1 fold increase)	Fc1ccccc1Cn1nc(-c2cocn2)nc1-c1nccs1 [Compound I-62]
60 to 80	20 to 40	D (D = 5 to <10 fold increase)	B (B = 1 to <2 fold increase)	Fc1ccccc1Cn1nc(-c2nccs2)nc1-c1cocn1 [Compound I-63]
80 to 100	80 to 100	E (E = 10 to <20 fold increase)	D (D = 5 to <10 fold increase)	Fc1ccccc1Cn1nc(-c2cc(N3CCOCC3)ccn2)nc1-c1nccs1 [Compound I-65, 4-(2-(1-(2-fluorobenzyl)-5-(thiazol-2-yl)-1H-1,2,4-triazol-3-yl)pyridin-4-yl)morpholine]
20 to 40	40 to 60	E (E = 10 to <20 fold increase)	C (C = 2 to <5 fold increase)	Fc1ccccc1Cn1nc(-c2cc(N3CCOCC3)ccn2)nc1-c1cocn1 [Compound I-68, 4-(2-(1-(2-fluorobenzyl)-5-(oxazol-4-yl)-1H-1,2,4-triazol-3-yl)pyridin-4-yl)morpholine]
